These results are taken from ChEMBL document CHEMBL1221341, “[17(20)E]- and [17(20)Z]-pregna-5,17(20)-dien-21-oylamides. Facile synthesis and primary evaluation for cancer cells proliferation” (Bioorg Med Chem Lett, 2010).

Assay type in all cases: functional, cell-based
Assay [1] has as its system MCF7. As to the kind of experiment: Antiproliferative activity against human MCF7 cells at 0.1 to 0.3 uM after 48 hrs by MTT assay.
The test system of assay [2] is LNCaP. As to the kind of experiment: Antiproliferative activity against human LNCAP cells at 30 uM after 48 hrs by MTT assay. On the technique in general: Tetrazolium assays rely on reduction of a dye to a coloured formazan, in cell work by metabolically active cells.
Assay [3] has as its system LNCaP. As to the kind of experiment: Antiproliferative activity against human LNCAP cells at 0.1 to 0.3 uM after 48 hrs by MTT assay.
In assay [4] the test system is MCF7. The assay can be described thus: Antiproliferative activity against human MCF7 cells at 30 uM after 48 hrs by MTT assay.

The structures appear in SMILES notation. The source made the active and inactive calls. No cut-off for these calls is given here.

Turning to `C[C@]12CC[C@H](O)CC1=CC[C@@H]1[C@@H]2CC[C@]2(C)/C(=C\C(=O)N3CCCC3)CC[C@@H]12`, in the assay with MCF7 [1], the outcome was inactive.
As to `C[C@]12CC[C@H](O)CC1=CC[C@@H]1[C@@H]2CC[C@]2(C)/C(=C/C(=O)NCCO)CC[C@@H]12`, the result in the assay with MCF7 [1] and with LNCaP [3] was inactive. Besides, the outcome in the assay on LNCaP [2] and in the assay on MCF7 [4] was Active.
As for `C[C@]12CC[C@H](O)CC1=CC[C@@H]1[C@@H]2CC[C@]2(C)/C(=C/C(=O)N3CCCC3)CC[C@@H]12`, the result with LNCaP [3] was Active.
Regarding `C[C@]12CC[C@H](O)CC1=CC[C@@H]1[C@@H]2CC[C@]2(C)/C(=C/C(N)=O)CC[C@@H]12`, the result with MCF7 [1] and in the assay with LNCaP [3] was inactive. Besides, the result with LNCaP [2] and in the assay with MCF7 [4] was Active.
